Measurements as given in US5519115A, “Reverse antimicrobial peptides” (priority 1993, dated 1996).

Columns and labels:
[1] = tested on: P3 Fusarium; assay: Antifungal bioassay (MCIC, spore germination); type: cell-based, P3 Fusarium (field isolate); conditions: 10^7 spores/test; mean after 24 hours of treatment, at least three replicates
Description: Fungi were grown on an appropriate medium, in this case a potato dextrose agar plate, for several weeks. At the end of that period, the plate was flooded with about 5 mL of sterile distilled water to harvest spores. The spore concentration was determined by use of a hemocytometer and the spore suspension was stored in a sterile tube at 4° C. until it was needed. Then 82 microliters of potato dextrose broth and 3 microliters of spore suspension (ranging from 10^5 to 10^7 spores total) were added to 12 wells in a 96 well microtiter plate for each AMPPP to be tested, with 1-4 replicate sets of 12 wells prepared for each AMPPP within a single experiment. […] The amount of spore germination and fungal growth was recorded as a quantitative measurement at each observation time using a system of pluses and minuses: [-] meant no germination having occurred, [+] meant swollen spores with an extended germ tube, [++] meant the beginnings of mycelial growth with the overall appearance of a loose lattice, and [+++] meant a dense mycelial growth with the overall appearance of a thick opaque meshwork. The MCIC value for each AMPPP tested was then recorded, where the MCIC value is defined as the lowest peptide concentration at which no spore germination occurred (rating=[-]). […]

[2] = tested on: Cercospora sp.; assay: Antifungal bioassay (MCIC, spore germination); type: cell-based; conditions: 10^6 spores/test; mean after 24 hours of treatment
Description: (§1) Fungi were grown on an appropriate medium, in this case a potato dextrose agar plate, for several weeks. At the end of that period, the plate was flooded with about 5 mL of sterile distilled water to harvest spores. The spore concentration was determined by use of a hemocytometer and the spore suspension was stored in a sterile tube at 4° C. until it was needed. Then 82 microliters of potato dextrose broth and 3 microliters of spore suspension (ranging from 10^5 to 10^7 spores total) were added to 12 wells in a 96 well microtiter plate for each AMPPP to be tested, with 1-4 replicate sets of 12 wells prepared for each AMPPP within a single experiment. In several instances, more than one spore concentration was used in order to determine the efficacy of certain AMPPPs as a function of the number of target spores. Stock solutions of each AMPPP were prepared at a concentration of 1 mg/mL and 0-15 microliters of each peptide stock solution were added to a single well in the microtiter plate followed by a sufficient volume of water to bring the total well volume to 100 microliters. […] Typical peptide volumes assayed were 0, 1, 2, 3, 4, 5, 6, 7, 8, 9, 10, and 15 microliters, which corresponds to a final peptide concentration in the range of 0-150 micrograms/mL. The microtiter plates were sealed with parafilm and incubated at room temperature for 48 hours. The fungal growth was observed after 24 and 48 hours by microscope using a 4× and/or a 10× objective lens. The amount of spore germination and fungal growth was recorded as a quantitative measurement at each observation time using a system of pluses and minuses: [-] meant no germination having occurred, [+] meant swollen spores with an extended germ tube, [++] meant the beginnings of mycelial growth with the overall appearance of a loose lattice, and [+++] meant a dense mycelial growth with the overall appearance of a thick opaque meshwork. The MCIC value for each AMPPP tested was then recorded, where the MCIC value is defined as the lowest peptide concentration at which no spore germination occurred (rating=[-]). […]

[3] = tested on: Helminthosporium carbonum; assay: Antifungal bioassay (MCIC, spore germination); type: cell-based; conditions: 10^6 spores/test; mean after 24 hours of treatment
Description: as §1

[4] = tested on: Trichoderma reesei; assay: Antifungal bioassay (MCIC, spore germination); type: cell-based; conditions: 10^6 spores/test; mean after 24 hours of treatment
Description: as §1

[5] = tested on: isolated chloroplasts; assay: Oxygen evolution bioassay, phytotoxicity (isolated chloroplasts); type: cell-based, Spinach (Spinacia oleracea L. var. Melody)
Description: The following procedure for the preparation of chloroplasts to use in an oxygen electrode is similar to that of Gupta et al., "Development and Use of Chlorotetracycline Fluorescence as a Measurement Assay of Chloroplast Envelope-Bound Mg^2+, "Plant Physiol. 89, (1989) 753-761. Spinach (Spinacia oleracea L. var. `Melody`) was grown in 1:1 peat/vermiculite potting mix in a growth chamber with a 10 hour light period. The chamber temperature was maintained at 21° C. (day) and 16° C. (night) during the growth period. All plants were used for chloroplast isolation after 6-8 weeks of growth.
In order to obtain an enriched chloroplast fraction, about 12 g of deribbed spinach leaves were thoroughly washed and surface dried. The leaves were then cut into small pieces, each about 1/2 inch square, and were placed in a small blender jar containing 50 mL of chilled homogenization medium (0.33M sorbitol, 50 mM Hepes-NaOH, pH 6.8, 2mM Na2 EDTA, 1 mM MnCl2, 1 mM MgCl2). The tissue was blended twice for three second intervals on high speed in a blender. The resulting homogenate was filtered through four layers of cheesecloth and two layers of miracloth (Behring Diagnostics, La Jolla, Calif.) into two chilled 30 mL glass centrifuge tubes. The filtered solution was centrifuged for 1.0 minute at 750 g (2,200 RPM) in a JS 13.1 swinging bucket rotor in a Beckman J2-21M centrifuge (Beckman Instruments, Inc., Somerset, N.J.). The supernatant was then decanted and the pellet was gently resuspended by swirling at 0° C. About 15 mL of homogenization medium was added to each tube of chloroplasts before the chloroplasts were layered onto a 40% Percoll gradient (6 mL Percoll, 9 mL homogenization medium, and 0.03 g bovine serum albumin) in a 30 mL glass centrifuge tube. These tubes were centrifuged for 4.0 minutes at 2500 g (4000 RPM) in a JS 13.1 swinging bucket rotor in a Beckman J2-21M centrifuge. The supernatant was removed and the resulting pellet was resuspended in a small amount of homogenization medium (about 500 microliters).
Plastid concentration was generally expressed on a chlorophyll basis. Chlorophyll was determined by the method of Arnon "Copper Enzymes in Isolated Chloroplasts, Polyphenol Oxidase in Beta Vulgaris," Plant Physiol. 24, (1949) 1-15. About 50 microliters of chloroplast stock suspension was added to 10 mL of 80% acetone and this solution was incubated 5.0 minutes in the dark and then centrifuged for 5.0 minutes at 500 g (1630 RPM) in a Beckman GP centrifuge. The absorbance of the acetone-chloroplast solution was monitored at 645 nm, at 663 nm and at 730 nm. The chlorophyll concentration was then calculated as 10× [(absorbance at 645 nm×20.2)+(absorbance at 663 nm×8.02)--background at 730 nm]. This gave the amount of chlorophyll in micrograms for the original 50 microliters of chloroplasts. The concentration of chloroplasts was then adjusted with homogenization medium so that 50 microliters of suspension contained 26 micrograms of chlorophyll. These chloroplasts were only active for 11/2 to 2 hours and were therefore used immediately.
An oxygen electrode (Hansatech Instruments Ltd., Kings Lynn, Norfolk, England) was used to measure oxygen evolution from isolated chloroplasts. For a detailed discussion of the method see, D. Walker, "The Use of the Oxygen Electrode and Fluorescence Probes in Simple Measurements of Photosynthesis," supra. A saturated KCl solution was placed in the electrode well and a one-inch square of rolling paper or lens paper was placed in to the electrode well so that it soaked up KCl and formed an ionic bridge. A one-inch square of teflon membrane was then prepared, being careful not to touch its surface, and was placed over the soaked paper. Using the membrane applicator, an O ring was placed over the head of the electrode, thereby securing paper and membrane across the electrode. The CB-1D control box was turned on and the system was allowed to warm up approximately one hour before calibration. […]

Met-Mag 1 dimer (head-to-tail) [Peptide No. 9]
MCIC Values With: P3 Fusarium [1]: 15+/-6 micrograms per mL | MCIC Values With: Cercospora sp. [2]: 25+/-10 micrograms per mL | MCIC Values With: Helminthosporium carbonum [3]: 63+/-29 micrograms per mL | MCIC Values With: Trichoderma reesei [4]: 24+/-12 micrograms per mL | inhibition of oxygen evolution [5]: 100%
